From article PMC8692581, “A specific inhibitor of ALDH1A3 regulates retinoic acid biosynthesis in glioma stem cells” (Communications Biology, 2021)

Tests used:
ALDH1A3 [1] = target: T1, ALDH1A3 (Homo sapiens, UniProt P47895); experiment: X-ray co-crystal structure ([…] Å); steady-state enzyme inhibition kinetics (IC50 […]); thermal shift MS in GSC-326 lysate; format: biochemical
T1 construct: full-length, N-term 6xHis tagged
T1 sequence (P47895 1-512): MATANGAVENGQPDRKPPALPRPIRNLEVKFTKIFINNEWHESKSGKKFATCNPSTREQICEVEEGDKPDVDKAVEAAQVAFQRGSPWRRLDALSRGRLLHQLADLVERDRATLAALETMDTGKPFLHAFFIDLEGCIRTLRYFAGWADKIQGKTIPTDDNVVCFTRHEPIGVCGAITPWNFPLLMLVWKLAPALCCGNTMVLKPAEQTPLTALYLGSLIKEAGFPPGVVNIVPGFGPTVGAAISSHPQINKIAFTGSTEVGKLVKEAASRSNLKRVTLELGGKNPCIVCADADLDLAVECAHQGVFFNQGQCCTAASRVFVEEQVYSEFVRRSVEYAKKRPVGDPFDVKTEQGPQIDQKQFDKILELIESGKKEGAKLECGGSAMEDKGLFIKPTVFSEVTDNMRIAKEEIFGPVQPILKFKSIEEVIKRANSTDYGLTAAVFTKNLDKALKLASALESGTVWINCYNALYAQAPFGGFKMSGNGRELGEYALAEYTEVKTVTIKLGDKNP

ALDH1A1 = target: T2, ALDH1A1 (Homo sapiens, UniProt P00352); experiment: steady-state enzyme kinetics, NADH absorbance at […] nm ([…] activity retained at […] inhibitor); format: biochemical
T2 construct: full-length, N-term 6xHis tagged
T2 sequence (P00352 1-501): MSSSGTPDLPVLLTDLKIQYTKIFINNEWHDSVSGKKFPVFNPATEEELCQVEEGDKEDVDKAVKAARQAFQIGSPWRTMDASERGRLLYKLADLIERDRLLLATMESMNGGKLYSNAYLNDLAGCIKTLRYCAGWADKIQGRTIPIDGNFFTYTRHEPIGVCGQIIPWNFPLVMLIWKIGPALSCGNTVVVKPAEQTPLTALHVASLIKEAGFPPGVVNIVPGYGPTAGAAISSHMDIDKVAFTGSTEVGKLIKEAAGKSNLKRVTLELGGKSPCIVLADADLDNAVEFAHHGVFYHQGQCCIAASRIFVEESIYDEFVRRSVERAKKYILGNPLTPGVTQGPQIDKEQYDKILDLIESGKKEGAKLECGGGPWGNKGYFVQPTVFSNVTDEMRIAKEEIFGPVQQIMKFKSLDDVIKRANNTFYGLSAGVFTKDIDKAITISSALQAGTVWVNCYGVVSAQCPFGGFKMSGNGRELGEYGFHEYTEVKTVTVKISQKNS

ALDH1A3 [2] = target: T1, ALDH1A3; experiment: X-ray crystal structure ([…] Å), ternary with MCI-INI-3; crystals grown with […] NAD+; format: binding

Question: For `COC(=O)c1cc(-c2ccc3c(c2)OCO3)nc2cc(-c3ccccc3)nn12` [MCI-INI-3], which Ki (ALDH1A3 [1]) is on record?
Answer: The Ki was 0.55 ± 0.11 µM.

Question: And the Ki (ALDH1A1)?
Answer: Its Ki is 78.2 ± 14.4 µM.

Question: Which “X-ray crystal structure (2.8 Å), ternary with MCI-INI-3; crystals grown with 1 m” value (ALDH1A3 [2]) does the source give for `NC(=O)c1ccc[n+]([C@@H]2O[C@H](COP(=O)([O-])OP(=O)(O)OC[C@H]3O[C@@H](n4cnc5c(N)ncnc54)[C@H](O)[C@@H]3O)[C@@H](O)[C@H]2O)c1` [NAD^+] here?
Answer: Its value is “The ligands NAD^+ and MCI-INI-3 are shown as gray and black sticks”.
